Data on 1 compound can be found in patent US10865376B2, “Method for detecting the presence or absence of biological particles” (bioMérieux, priority 2014, dated 2020).

What all share (type): cell-based
The subject of test [1] is Escherichia coli (ATCC 35218). Description: Detection of the inhibition zone around a support impregnated with antibiotic, by ombroscopy / micro-ombroscopy. The text has this:
(§1) In general terms, referring to FIG. 2, the method of detection 100 of the present invention comprises a first step 101 of seeding the culture medium 2 with an extract of biological particles 1. The extract of biological particles 1 is for example a raw sample of biological particles 1 taken from the patient directly. In this case the raw sample undergoes a preculture phase for isolating strains of biological particles 1 present, in the case of a sample comprising a diversity of biological particles 1, and increase of the biological particles 1 selected and isolated. […] The sample of biological particles 1 has a biomass of biological particles 1 that is sufficient to be analyzed validly, such as a standard at a concentration of 0.5 McFarland. The extract of biological particles 1 is for example from urine, blood, cerebrospinal fluid or a similar biological fluid.
The culture medium 2 is for example flooded with the extract of biological particles 1, or the culture medium 2 is seeded with biological particles 1 by swabbing, or the culture medium 2 receives the biological particles by spreading them using a rake. Then, the Petri dish 4 is agitated transversely to distribute the extract of biological particles 1 as uniformly as possible on the culture medium 2, and then any supernatant is removed from the Petri dish 4. The first step of seeding 101 may have features different from those described above without departing from the rules of the present invention.
The method of detection 100 then comprises a second step 102 of receiving at least one dose of the chemical agent 3 at the initial time point T0, for example starting from placement of at least one impregnated support 5 inoculated with the chemical agent 3 on a receiving zone R of the impregnated support 5 on the culture medium 2.
The impregnated support 5 is for example a disk impregnated with the chemical agent 3, the disk having the overall conformation of a thin slice of a cylinder. The disk comprises an amount of chemical agent 3 that is homogeneous overall in its volume. […]

In test [2] the test system is Escherichia coli (ATCC 25922). Description: Detection of the inhibition zone around a support impregnated with antibiotic, by micro-ombroscopy. Particulars: micro-ombroscopy (FIG. 10 device), detection time TX of two hours.
Description: as §1
The culture medium 2 is for example flooded with the extract of biological particles 1, or the culture medium 2 is seeded with biological particles 1 by swabbing, or the culture medium 2 receives the biological particles by spreading them using a rake. Then, the Petri dish 4 is agitated transversely to distribute the extract of biological particles 1 as uniformly as possible on the culture medium 2, and then any supernatant is removed from the Petri dish 4. […]

Test [3] has as its system Escherichia coli (ATCC 25922). Description: Minimum inhibitory concentration calculated from the normed representation (ombroscopy image plus ruler). Particulars: starting from six hours, FIGS. 26 and 27. The source says:
(§2) The impregnated support 5 is for example also a slender strip, of overall rectangular conformation. The strip comprises for example a concentration of chemical agent 3 that follows an increasing concentration gradient from one short edge to an opposite short edge of the strip. In FIG. 19, the fifth processing step 105 comprises a second phase X2 of taking a control photograph 7' of a ruler 15 arranged on the culture medium 2 contained in the Petri dish 4, the second phase X2 also being carried out by the detecting device 12. Then the fifth processing step 105 comprises a third phase X3 of superimposing the image 7 and the control photograph 7' and more particularly of their respective receiving zone R to form a normed representation 7'' of the culture medium 2. In FIG. 20, the fifth processing step 105 comprises a fourth phase X4 of localization of a reference mark 16 of the ruler 15. In the example shown, the reference mark 16 is the indication “256” on the ruler 15, and the reference mark 16 may consist of some other and relatively any indication. The reference mark 16 comprises Cartesian coordinates […] and […]. In FIGS. 21 to 25, the fifth processing step 105 comprises a fifth phase X5 of processing the normed representation 7''. In FIG. 21, the fifth phase X5 comprises at least one smoothing operation for homogenizing the normed representation 7''. […]

The test system of test [4] is Staphylococcus aureus (ATCC 25923). Described as above. Particulars: starting from six hours, FIG. 28.
Description: as §2

For test [5], the system named is Escherichia coli (ATCC 35218). Description: Minimum inhibitory concentration / inhibition zone from the normed representation (ombroscopy image plus ruler).
Description: as §2

As to `CC1(C)S[C@@H]2[C@H](NC(=O)[C@H](N)c3ccccc3)C(=O)N2[C@H]1C(=O)O` [ampicillin], the “response of the biological particles to the chemical agent (sensitivity / resistance)” value is “resistance” in test [1] (micro-ombroscopy (FIG. 10 device), detection time TX of four hours); “resistance” in test [1] (ombroscopy (FIG. 9 device), identifiable starting from four hours, images up to twenty-four hours); “sensitivity” in test [2]. For the same compound, the “presence or absence of inhibition zone” value in test [1] (ombroscopy (FIG. 9 device), starting from four hours) was “no inhibition zone is detected”. In addition, the “response characterized from the calculated minimum concentration MIC” value in test [3] and in test [4] was “sensitive” in each case. In test [5] (FIG. 29, based on absence of a first inhibition zone Z1), the “response from the normed representation” value is given as “resistant”. In test [5] (FIG. 30), the “response from the normed representations, according to EUCAST” value was “resistant”.
